Measured values published in a melting point compilation (Tetko et al.; mined from patent text by program, amines drawn as free bases though some values may be those of a salt).

| melting point | SMILES |
| --- | --- |
| 68 to 73 °C | O=C(O)c1cc(CCCBr)ccc1O |
| 204 to 205 °C | OC1CSC(Oc2cc(-c3cncnc3)cnc2F)C(O)C1O (centres undefined) |
| 138 to 140 °C | O=S(=O)(c1ccc(S)cc1)c1ccc(S)cc1 |
| 77 to 78 °C | CC(C)c1nc(CN)n(C)c1Sc1cccc([N+](=O)[O-])c1 |
| 194 °C | CN1CCc2cc(NC(=O)/C=C/c3ccc(C(C)(C)C)cc3)ccc21 |
| 123 to 127 °C | COC(=O)c1ccc(NN2C(=O)C(C)=C(C)C2=O)cc1C(=O)Nc1nc(OC)nc(OC)n1 |
| 100 to 102 °C | CC(C)(C)c1cc(/C=C/C(=O)COc2ccccc2)cc(C(C)(C)C)c1O |
| 93 to 95 °C | Cc1cc(Nc2ccccc2C(=O)N2CCCCC2)ccn1 |
| 185 to 186 °C | CCCC(CCC)n1c(CC)nc2c1c(=O)n(C)c(=O)n2-c1ccc(Cl)cc1Cl |
| 183 °C | CSCC[C@@H](NC(=O)OC(C)(C)C)C(=O)Nc1ccc(N2C[C@H](CNC(=O)c3ccc(Cl)s3)OC2=O)cc1 |
| 244 to 245 °C | NC(=O)c1cn(-c2ccc(Cl)c(Cl)c2)cn1 |
| 165 to 166 °C | Cc1ccc(-c2c(NS(=O)(=O)c3ccc(C(C)(C)C)cc3)ncnc2OCCOc2ccc(-c3nnn[nH]3)cc2)cc1 |
| 148 to 150 °C | O=C(NCc1ncco1)c1ccnc(N2CCN(Cc3ccc(F)cc3)C2=O)c1 |
| 239 to 243 °C | Cc1nsc(NC(=O)Cc2ccc(O)c(N)c2)c1Cl |
| 80 to 81 °C | COc1ccc(CSCCNC(=O)c2c(Cl)cccc2Cl)cc1 |
| 43 to 46 °C | CSC1(CC(=O)O)CCC1 |
| 147 to 148 °C | N=C(Nc1ccccc1-c1cccc(F)c1)N1CCC(O)CC1 |
| 195 to 197 °C | Cn1cc(Br)c(=O)c(-c2ccccc2)c1 |

| melting point | SMILES |
| --- | --- |
| 165 to 167 °C | CS(=O)(=O)c1ccc(-c2cnn(CC=Cc3ccccc3)c(=O)c2-c2ccc(F)cc2)cc1 |
| 208 to 210 °C | COc1ccc(N2CCN(C(=O)c3ccccc3C(c3ccc(O)cc3)c3ccc(O)cc3)CC2)cc1 |
| 231 to 232 °C | COc1ccc(C(=O)Nc2ccccc2)cc1NS(=O)(=O)c1cccc2c(N(C)C)cccc12 |
| 228 to 229 °C | CN1CCC(=O)N(c2cccc3ccccc23)C1=O |
| 165 to 175 °C | O=C(N[C@@H](Cc1ccc(O)cc1)C(=O)O)C(=Cc1ccccc1)NC(=O)C(F)(F)F |
| 172 to 173 °C | O=C(CCc1cnoc1-c1ccccc1)Nc1nc(-c2ccc(Cl)cc2)cs1 |
| 237 to 239 °C | NC(=O)c1ccc2nc(C(=O)NCc3ccnc(OCC4CCOC4)c3)[nH]c(=O)c2c1 (centres undefined) |
| 124 to 126 °C | CCOC(=O)Cc1nn(Cc2ccc(Br)c(Cl)c2)c(=S)c2ccccc12 |
| 63 to 65 °C | CCCCCCCCCCOc1ccc(OCc2ccccc2)c(C(=O)O)c1 |
| 161 to 162 °C | CC(=O)OCC(OC(C)=O)C(OC(C)=O)C(C=O)OC(C)=O (centres undefined) |
| 182 °C | Cc1cc(Oc2cccc(C(=O)O)n2)n(C)n1 |
| 111 to 112 °C | NS(=O)(=O)c1ccccc1SCC(F)F |
| 45 to 47 °C | CC(C)(CO)CCCCCCCCCCCC(C)(C)CO |
| 288 to 289 °C | COc1ccc(-c2ccc(OC)c(C34CC5CC(CC(C5)C3)C4)c2)cc1C12CC3CC(CC(C3)C1)C2 |
| 160 to 161 °C | OC(c1cc(F)ccc1F)c1cc(Cl)ncc1Cl (centres undefined) |
| 120 °C | CCOC(=O)c1cc2cccc(N(C)S(=O)(=O)c3nccn3C)c2[nH]1 |
| 111 to 113 °C | CS(=O)(=O)c1c[nH]nc1C(CCCC(=O)C1CCCCC1)CO[N+](=O)[O-] (centres undefined) |
| 169 to 171 °C | CC(C)CC(NC(=O)C1CCCN1)C(=O)NCC(=O)Oc1c(Cl)c(Cl)c(Cl)c(Cl)c1Cl (centres undefined) |

| SMILES | melting point |
| --- | --- |
| N#Cc1ccc(N2CCC(F)(F)C2)c2ccccc12 | 68 to 69 °C |
| CC(C)(C)c1ccc(OP(Oc2ccc(C(C)(C)C)cc2C(C)(C)C)Oc2ccc(C(C)(C)C)cc2C(C)(C)C)c(C(C)(C)C)c1 | 181 to 186 °C |
| NC(=S)N(c1ccsc1-c1nc(C2CC2)no1)C1CN2CCC1CC2 (centres undefined) | 155 to 157 °C |
